Numbers after ± are expanded uncertainties.
Key:
[1] = Liquid; for mass density / speed of sound: 298.15 K, 101.33 kPa; for vapor or sublimation pressure: Ebulliometric method (Recirculating still)
[2] = refractive index (Na D-line) (dimensionless); settings: 298.15 K; 101.33 kPa; Liquid
[3] = refractive index (Na D-line) (dimensionless); xn = mol fraction of the nth substance listed; settings: 298.15 K, 101 kPa, Liquid
[4] = xn = mol fraction of the nth substance listed; settings: 298.15 K, 101 kPa, Liquid

CCOC(=O)C(C)O (racemic) [DL-ethyl lactate]
Settings | mass density [kg/m3] | refractive index | speed of sound [m/s]
[1] | 1028.02 ± 0.27 | – | 1277 ± 3
[2] | – | 1.4105 ± 0.0012 | –

Settings | vapor or sublimation pressure [kPa]
[1], 424.98 K | 101.3 ± 1

CCOC(=O)C(C)O (stereo not drawn) [DL-ethyl lactate] + CCOC(C)=O
Settings | mass density, [4] [kg/m3] | refractive index, [3] | speed of sound, [4] [m/s]
x2 = 0.049 | 1022.5 ± 0.34 | 1.4088 ± 0.0012 | 1267 ± 3
x2 = 0.1 | 1016.77 ± 0.34 | 1.40722 ± 0.0012 | 1263 ± 3
x2 = 0.15 | 1010.85 ± 0.34 | 1.40535 ± 0.0012 | 1256 ± 3
x2 = 0.2 | 1004.94 ± 0.34 | 1.40357 ± 0.0012 | 1249 ± 3
x2 = 0.251 | 998.8 ± 0.34 | 1.40168 ± 0.0012 | 1243 ± 3
x2 = 0.3 | 992.68 ± 0.35 | 1.40005 ± 0.0012 | 1236 ± 3
x2 = 0.35 | 986.4 ± 0.36 | 1.39819 ± 0.0012 | 1229 ± 3
x2 = 0.4 | 979.87 ± 0.36 | 1.39623 ± 0.0012 | 1222 ± 3
x2 = 0.45 | 973.59 ± 0.36 | 1.39451 ± 0.0012 | 1215 ± 3
x2 = 0.5 | 966.98 ± 0.37 | 1.39263 ± 0.0012 | 1208 ± 3
x2 = 0.55 | 960.41 ± 0.38 | 1.3906 ± 0.0012 | 1201 ± 3
x2 = 0.6 | 953.46 ± 0.39 | 1.38855 ± 0.0012 | 1194 ± 3
x2 = 0.65 | 946.64 ± 0.4 | 1.38645 ± 0.0013 | 1188 ± 3
x2 = 0.7 | 939.6 ± 0.41 | 1.3842 ± 0.0013 | 1180 ± 3
x2 = 0.756 | 931.41 ± 0.42 | 1.38126 ± 0.0013 | 1173 ± 3
x2 = 0.8 | 924.84 ± 0.42 | 1.37923 ± 0.0013 | 1167 ± 3
x2 = 0.849 | 917.72 ± 0.43 | 1.37694 ± 0.0013 | 1160 ± 3
x2 = 0.9 | 910.03 ± 0.44 | 1.3747 ± 0.0013 | 1153 ± 3
x2 = 0.95 | 902.37 ± 0.45 | 1.3722 ± 0.0013 | 1145 ± 3

CCOC(=O)C(C)O (stereo not drawn) [DL-ethyl lactate] + COC(C)=O
Settings | mass density, [4] [kg/m3] | refractive index, [3] | speed of sound, [4] [m/s]
x2 = 0.058 | 1024.62 ± 0.28 | 1.40872 ± 0.0012 | 1272 ± 3
x2 = 0.1 | 1021.03 ± 0.27 | 1.40699 ± 0.0012 | 1266 ± 3
x2 = 0.15 | 1017.3 ± 0.26 | 1.40595 ± 0.0012 | 1261 ± 3
x2 = 0.2 | 1013.63 ± 0.26 | 1.40379 ± 0.0012 | 1255 ± 3
x2 = 0.25 | 1009.78 ± 0.27 | 1.4023 ± 0.0012 | 1250 ± 3
x2 = 0.3 | 1005.46 ± 0.28 | 1.39968 ± 0.0013 | 1244 ± 3
x2 = 0.35 | 1001.13 ± 0.28 | 1.39787 ± 0.0012 | 1238 ± 3
x2 = 0.4 | 996.59 ± 0.28 | 1.39628 ± 0.0012 | 1232 ± 3
x2 = 0.45 | 992.2 ± 0.28 | 1.39379 ± 0.0013 | 1226 ± 3
x2 = 0.5 | 987.41 ± 0.29 | 1.39125 ± 0.0013 | 1220 ± 3
x2 = 0.55 | 982.34 ± 0.29 | 1.3879 ± 0.0013 | 1213 ± 3
x2 = 0.6 | 977.25 ± 0.3 | 1.38498 ± 0.0013 | 1207 ± 3
x2 = 0.65 | 972.03 ± 0.31 | 1.38197 ± 0.0013 | 1200 ± 3
x2 = 0.7 | 966.3 ± 0.32 | 1.37916 ± 0.0013 | 1193 ± 3
x2 = 0.75 | 960.47 ± 0.32 | 1.37601 ± 0.0013 | 1186 ± 3
x2 = 0.8 | 954.34 ± 0.33 | 1.37278 ± 0.0013 | 1180 ± 3
x2 = 0.85 | 947.87 ± 0.34 | 1.3696 ± 0.0013 | 1172 ± 3
x2 = 0.9 | 941.28 ± 0.35 | 1.36642 ± 0.0013 | 1164 ± 3
x2 = 0.95 | 934.27 ± 0.36 | 1.36248 ± 0.0013 | 1157 ± 3

CCOC(C)=O [ethyl acetate]
Settings | mass density [kg/m3] | refractive index | speed of sound [m/s]
[1] | 894.29 ± 0.34 | – | 1138 ± 3
[2] | – | 1.36978 ± 0.0012 | –

Settings | vapor or sublimation pressure [kPa]
[1], 350.25 K | 101.3 ± 1

COC(C)=O [methyl ethanoate]
Settings | mass density [kg/m3] | refractive index | speed of sound [m/s]
[1] | 926.96 ± 0.3 | – | 1148 ± 3
[2] | – | 1.35865 ± 0.0012 | –

Settings | vapor or sublimation pressure [kPa]
[1], 330.03 K | 101.3 ± 1

From the NIST ThermoML archive (doi:10.1021/je060052p)
